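Test compounds were applied to cells in 96-well plates for 48 hours at 5 doses. TGI marks complete inhibition of growth.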
System: HCT-15 colon
Test: NCI anticancer screen, dose series, 48 h

Question: How did the TGI turn out when `COC(=O)[C@@](NC(=O)OCc1ccccc1)([C@H](C)O)C(F)(F)F` was run?
Answer: Its TGI is greater than 100 µM.

Question: With `Cc1[nH]c(-c2ccccc2)c2nc(N(C)C)oc(=O)c12` as the compound, how does the TGI read?
Answer: The TGI was greater than 100 µM.

Question: For `CC(C)(C)O/N=C/c1cc(NC(=S)c2ccsc2)ccc1Cl`, which TGI is on record?
Answer: The TGI was 27.7 µM.

Question: How did the TGI turn out when `O=C1Cc2cn[nH]c2-c2ccccc2N1` was run?
Answer: Its TGI is greater than 63.3 µM.

Question: Which TGI does the source give for `O=CNc1ccccc1OCCOc1ccccc1NC=O` here?
Answer: Its TGI is greater than 100 µM.

Question: `C=CCN1CCC(c2cc(C(=O)OCC)[nH]c2-c2cc(C)no2)C1=O` (stereo not drawn) was tested. Which TGI did it give?
Answer: Its TGI is greater than 100 µM.

Question: For `Cc1cc(NS(=O)(=O)c2ccc(N=[N+]([O-])c3ccc(S(=O)(=O)Nc4cc(C)on4)cc3)cc2)no1`, which TGI is on record?
Answer: Its TGI is greater than 100 µM.

Question: With `Cc1c(/C=N/NC(=S)N2CCCCC2)c(=O)n(-c2ccccc2)n1C` as the compound, how does the TGI read?
Answer: Its TGI is greater than 100 µM.

Question: `COc1ccc(-c2nc(Nc3ccccc3)sc2Cc2sc(Nc3ccccc3)nc2-c2ccc(OC)cc2)cc1` was tested. Which TGI did it give?
Answer: Its TGI is greater than 100 µM.

Question: With `Cc1ccc(S(=O)(=O)N2CCNCCN(S(=O)(=O)c3ccc(C)cc3)CCNCC2)cc1` as the compound, how does the TGI read?
Answer: Its TGI is greater than 100 µM.

Question: Which TGI does the source give for `Cc1sc2nc3n(c(=O)c2c1C)N=CN(c1ccc(Cl)cc1)C3` here?
Answer: The TGI was greater than 100 µM.

System: SNB-75 CNS
Test: NCI anticancer screen, dose series, 48 h

Question: For `O=C(NCCNCCNC(=O)c1cc(-c2ccccc2)nc2ccccc12)c1cc(-c2ccccc2)nc2ccccc12`, which TGI is on record?
Answer: Its TGI is 3.99 µM.

Question: Which TGI does the source give for `COc1cc2cc(C(=O)N3CC(CCl)c4ccc([N+](C)(C)Cc5ccccc5[N+](=O)[O-])cc43)[nH]c2c(OC)c1OC` (stereo not drawn) here?
Answer: The TGI was 24.7 µM.

Question: With `CC(Cn1c2c(c3cc(O)ccc31)CCc1ccc(O)cc1-2)N(C)C` (stereo not drawn) as the compound, how does the TGI read?
Answer: Its TGI is 51.2 µM.

Question: How did the TGI turn out when `CC1=NN(c2nc(N)nc(/C(C#N)=C\c3ccc(-c4ccc([N+](=O)[O-])cc4)o3)n2)C(C)(C)C1` was run?
Answer: The TGI was 51.6 µM.

Question: Which TGI does the source give for `CCOC(=O)c1nc2ccc(C(F)(F)F)cc2nc1Nc1ccc(OC)cc1` here?
Answer: The TGI was greater than 100 µM.

Question: How did the TGI turn out when `COc1ccc2nc3ccc(OC)cc3c(SCCCl)c2c1` was run?
Answer: The TGI was greater than 96.8 µM.

Question: `CC(=O)[C@H]1[C@H](O)C[C@@]2(C)[C@@H]3CCc4cc(O)c(OC5OC(CO)C(O)C(O)C5O)cc4C3(C)C(=O)C[C@]12C` (stereo partly drawn) was tested. Which TGI did it give?
Answer: The TGI was greater than 100 µM.

Question: Which TGI does the source give for `CC(C)(O)c1cc2c(cc1C(C)(C)O)-c1ccccc1-2` here?
Answer: The TGI was greater than 100 µM.

Question: For `CC(C)[Si]1(C(C)C)OCC2OC(n3ccc(=O)[nH]c3=O)C([Se]c3ccccc3)C2O[Si](C(C)C)(C(C)C)O1` (stereo not drawn), which TGI is on record?
Answer: Its TGI is 2.42 µM.

Question: With `CN(N=O)c1nc2c(C(N)=O)ncn2s1` as the compound, how does the TGI read?
Answer: Its TGI is greater than 100 µM.

Question: With `CCOc1ccc(NC(=O)C(=O)Nn2c(N)nnc2N)cc1` as the compound, how does the TGI read?
Answer: Its TGI is greater than 100 µM.

Question: With `CC(C)(C)OC(=O)N1CCCC1C(=O)NC(c1ccccc1)c1ccccc1` (stereo not drawn) as the compound, how does the TGI read?
Answer: Its TGI is greater than 100 µM.

Question: How did the TGI turn out when `O=C(NCCN1CCCCC1)c1cccc(I)c1` was run?
Answer: The TGI was greater than 100 µM.

Question: How did the TGI turn out when `COC(=O)[C@@](NC(=O)OCc1ccccc1)([C@H](C)O)C(F)(F)F` was run?
Answer: The TGI was greater than 100 µM.

Question: `Cc1[nH]c(-c2ccccc2)c2nc(N(C)C)oc(=O)c12` was tested. Which TGI did it give?
Answer: Its TGI is greater than 100 µM.

Question: For `CC(C)(C)O/N=C/c1cc(NC(=S)c2ccsc2)ccc1Cl`, which TGI is on record?
Answer: The TGI was 77.4 µM.

Question: How did the TGI turn out when `O=C1Cc2cn[nH]c2-c2ccccc2N1` was run?
Answer: The TGI was greater than 100 µM.

Question: Which TGI does the source give for `O=CNc1ccccc1OCCOc1ccccc1NC=O` here?
Answer: Its TGI is greater than 100 µM.

Question: `C=CCN1CCC(c2cc(C(=O)OCC)[nH]c2-c2cc(C)no2)C1=O` (stereo not drawn) was tested. Which TGI did it give?
Answer: The TGI was greater than 100 µM.

Question: For `Cc1cc(NS(=O)(=O)c2ccc(N=[N+]([O-])c3ccc(S(=O)(=O)Nc4cc(C)on4)cc3)cc2)no1`, which TGI is on record?
Answer: The TGI was greater than 100 µM.

Question: `Cc1c(/C=N/NC(=S)N2CCCCC2)c(=O)n(-c2ccccc2)n1C` was tested. Which TGI did it give?
Answer: The TGI was greater than 100 µM.

Question: Which TGI does the source give for `COc1ccc(-c2nc(Nc3ccccc3)sc2Cc2sc(Nc3ccccc3)nc2-c2ccc(OC)cc2)cc1` here?
Answer: Its TGI is greater than 100 µM.

Question: `Cc1ccc(S(=O)(=O)N2CCNCCN(S(=O)(=O)c3ccc(C)cc3)CCNCC2)cc1` was tested. Which TGI did it give?
Answer: Its TGI is 42.8 µM.

Question: Which TGI does the source give for `Cc1sc2nc3n(c(=O)c2c1C)N=CN(c1ccc(Cl)cc1)C3` here?
Answer: Its TGI is greater than 100 µM.

System: UACC-257 melanoma
Test: NCI anticancer screen, dose series, 48 h

Question: With `O=C(NCCNCCNC(=O)c1cc(-c2ccccc2)nc2ccccc12)c1cc(-c2ccccc2)nc2ccccc12` as the compound, how does the TGI read?
Answer: Its TGI is 3.92 µM.

Question: For `COc1cc2cc(C(=O)N3CC(CCl)c4ccc([N+](C)(C)Cc5ccccc5[N+](=O)[O-])cc43)[nH]c2c(OC)c1OC` (stereo not drawn), which TGI is on record?
Answer: The TGI was 6.75 µM.

Question: With `CC(Cn1c2c(c3cc(O)ccc31)CCc1ccc(O)cc1-2)N(C)C` (stereo not drawn) as the compound, how does the TGI read?
Answer: Its TGI is 44.6 µM.

Question: `CC1=NN(c2nc(N)nc(/C(C#N)=C\c3ccc(-c4ccc([N+](=O)[O-])cc4)o3)n2)C(C)(C)C1` was tested. Which TGI did it give?
Answer: Its TGI is greater than 100 µM.

Question: How did the TGI turn out when `CCOC(=O)c1nc2ccc(C(F)(F)F)cc2nc1Nc1ccc(OC)cc1` was run?
Answer: Its TGI is greater than 100 µM.

Question: `COc1ccc2nc3ccc(OC)cc3c(SCCCl)c2c1` was tested. Which TGI did it give?
Answer: Its TGI is greater than 100 µM.

Question: How did the TGI turn out when `CC(=O)[C@H]1[C@H](O)C[C@@]2(C)[C@@H]3CCc4cc(O)c(OC5OC(CO)C(O)C(O)C5O)cc4C3(C)C(=O)C[C@]12C` (stereo partly drawn) was run?
Answer: Its TGI is greater than 100 µM.

Question: Which TGI does the source give for `CC(C)(O)c1cc2c(cc1C(C)(C)O)-c1ccccc1-2` here?
Answer: The TGI was greater than 100 µM.

Question: Which TGI does the source give for `CC(C)[Si]1(C(C)C)OCC2OC(n3ccc(=O)[nH]c3=O)C([Se]c3ccccc3)C2O[Si](C(C)C)(C(C)C)O1` (stereo not drawn) here?
Answer: The TGI was 13.9 µM.

Question: Which TGI does the source give for `CN(N=O)c1nc2c(C(N)=O)ncn2s1` here?
Answer: The TGI was greater than 100 µM.

Question: With `CCOc1ccc(NC(=O)C(=O)Nn2c(N)nnc2N)cc1` as the compound, how does the TGI read?
Answer: Its TGI is greater than 100 µM.

Question: How did the TGI turn out when `CC(C)(C)OC(=O)N1CCCC1C(=O)NC(c1ccccc1)c1ccccc1` (stereo not drawn) was run?
Answer: Its TGI is greater than 100 µM.

Question: How did the TGI turn out when `COC(=O)[C@@](NC(=O)OCc1ccccc1)([C@H](C)O)C(F)(F)F` was run?
Answer: Its TGI is greater than 100 µM.

Question: How did the TGI turn out when `Cc1[nH]c(-c2ccccc2)c2nc(N(C)C)oc(=O)c12` was run?
Answer: The TGI was greater than 100 µM.

Question: `CC(C)(C)O/N=C/c1cc(NC(=S)c2ccsc2)ccc1Cl` was tested. Which TGI did it give?
Answer: Its TGI is 25.2 µM.

Question: `O=C1Cc2cn[nH]c2-c2ccccc2N1` was tested. Which TGI did it give?
Answer: The TGI was greater than 60.5 µM.

Question: Which TGI does the source give for `O=CNc1ccccc1OCCOc1ccccc1NC=O` here?
Answer: The TGI was greater than 100 µM.

Question: How did the TGI turn out when `C=CCN1CCC(c2cc(C(=O)OCC)[nH]c2-c2cc(C)no2)C1=O` (stereo not drawn) was run?
Answer: The TGI was greater than 100 µM.

Question: How did the TGI turn out when `Cc1cc(NS(=O)(=O)c2ccc(N=[N+]([O-])c3ccc(S(=O)(=O)Nc4cc(C)on4)cc3)cc2)no1` was run?
Answer: Its TGI is greater than 100 µM.

Question: With `Cc1c(/C=N/NC(=S)N2CCCCC2)c(=O)n(-c2ccccc2)n1C` as the compound, how does the TGI read?
Answer: Its TGI is greater than 100 µM.

Question: `COc1ccc(-c2nc(Nc3ccccc3)sc2Cc2sc(Nc3ccccc3)nc2-c2ccc(OC)cc2)cc1` was tested. Which TGI did it give?
Answer: The TGI was greater than 100 µM.

Question: With `Cc1ccc(S(=O)(=O)N2CCNCCN(S(=O)(=O)c3ccc(C)cc3)CCNCC2)cc1` as the compound, how does the TGI read?
Answer: Its TGI is 33 µM.

Question: Which TGI does the source give for `Cc1sc2nc3n(c(=O)c2c1C)N=CN(c1ccc(Cl)cc1)C3` here?
Answer: Its TGI is greater than 100 µM.

Reference: PubChem BioAssay (NCI)
